Results published in ChEMBL document CHEMBL1148868, “Isoform selective inhibition of STAT1 or STAT3 homo-dimerization via peptidomimetic probes: structural recognition of STAT SH2 domains” (Bioorg Med Chem Lett, 2007).
Active and inactive are the calls of the source. No cut-off for these calls is given here.

What follows are compounds tested against Signal transducer and activator of transcription 3 (Homo sapiens, UniProt P40763) (assay: Inhibition of STAT3 dimer DNA binding activity after 30 mins).
Sequence of Signal transducer and activator of transcription 3 (P40763 whole entry): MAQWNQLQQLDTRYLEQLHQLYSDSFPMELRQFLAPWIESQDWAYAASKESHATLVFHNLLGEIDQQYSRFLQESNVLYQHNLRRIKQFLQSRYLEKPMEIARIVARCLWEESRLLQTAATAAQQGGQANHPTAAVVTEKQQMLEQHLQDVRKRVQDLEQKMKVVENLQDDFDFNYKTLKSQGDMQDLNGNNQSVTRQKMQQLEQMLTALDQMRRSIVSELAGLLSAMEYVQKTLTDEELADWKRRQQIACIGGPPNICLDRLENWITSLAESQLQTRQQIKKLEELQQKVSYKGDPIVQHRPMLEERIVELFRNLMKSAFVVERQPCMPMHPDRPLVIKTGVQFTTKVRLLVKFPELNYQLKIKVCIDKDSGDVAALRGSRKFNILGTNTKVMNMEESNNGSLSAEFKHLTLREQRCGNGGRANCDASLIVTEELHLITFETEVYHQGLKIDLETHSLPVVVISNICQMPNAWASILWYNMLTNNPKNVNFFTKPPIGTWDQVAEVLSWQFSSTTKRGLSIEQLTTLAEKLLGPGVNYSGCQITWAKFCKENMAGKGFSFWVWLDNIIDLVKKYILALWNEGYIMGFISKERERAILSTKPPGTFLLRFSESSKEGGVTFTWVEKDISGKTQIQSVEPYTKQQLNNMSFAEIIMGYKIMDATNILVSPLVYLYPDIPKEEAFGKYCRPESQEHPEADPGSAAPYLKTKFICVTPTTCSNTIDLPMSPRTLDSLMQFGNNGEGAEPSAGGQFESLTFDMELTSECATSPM

Going from CC(C)C[C@H](NC(=O)[C@H](Cc1ccc(OP(=O)(O)O)cc1)NC(=O)c1ccc(C#N)cc1)C(=O)Nc1ccccc1 to CC(C)C[C@H](NC(=O)[C@H](Cc1ccc(OP(=O)(O)O)cc1)NC(=O)c1ccc(C#N)cc1)C(=O)NCc1ccccc1, the IC50 rises from 310 µM to 800 µM (2.6-fold).

Going from CC(C)CNC(=O)[C@H](CC(C)C)NC(=O)[C@H](Cc1ccc(OP(=O)(O)O)cc1)NC(=O)c1ccc(C#N)cc1 (stereo in doubt; form 2) to CC(C)C[C@H](NC(=O)[C@H](Cc1ccc(OP(=O)(O)O)cc1)NC(=O)c1ccc(C#N)cc1)C(=O)NCCCO, the IC50 rises from 74 µM to 620 µM (8.4-fold). The first is the more potent here.

First: CC(C)C[C@H](NC(=O)[C@H](Cc1ccc(OP(=O)(O)O)cc1)NC(=O)c1ccc(C#N)cc1)C(=O)NCc1ccncc1
Second: CC(C)CNC(=O)[C@H](CC(C)C)NC(=O)[C@H](Cc1ccc(OP(=O)(O)O)cc1)NC(=O)c1ccc(C#N)cc1 (stereo in doubt; form 1)
The IC50 of the first is 2.1-fold higher: 123 µM for the first, 58 µM for the second.

First: CC(C)C[C@H](NC(=O)[C@H](Cc1ccc(OP(=O)(O)O)cc1)NC(=O)c1ccc(C#N)cc1)C(=O)NC1CCCCC1
Second: COc1cccc(NC(=O)[C@H](CC(C)C)NC(=O)[C@H](Cc2ccc(OP(=O)(O)O)cc2)NC(=O)c2ccc(C#N)cc2)c1
The IC50 of the first is 1.9-fold higher: 58 µM for the first, 31 µM for the second. The second is the more potent here.

Cc1cccc(NC(=O)[C@H](CC(C)C)NC(=O)[C@H](Cc2ccc(OP(=O)(O)O)cc2)NC(=O)c2ccc(C#N)cc2)c1 was tested, and the Activity was “inactive”.
In the case of CC(C)C[C@H](NC(=O)[C@H](Cc1ccc(OP(=O)(O)O)cc1)NC(=O)c1ccc(C#N)cc1)C(=O)NCc1cccnc1, the Activity is reported as “inactive”.
COC(=O)[C@H](CC(C)C)NC(=O)[C@H](Cc1ccc(OP(=O)(O)O)cc1)NC(=O)c1ccc(C#N)cc1 was tested, and the Activity was “inactive”.

What follows are compounds tested against T1, Signal transducer and activator of transcription 1-alpha/beta (Homo sapiens) (UniProt P42224) (assay: (§1) Inhibition of STAT1 dimer DNA binding activity after 30 mins).
T1 sequence (whole entry): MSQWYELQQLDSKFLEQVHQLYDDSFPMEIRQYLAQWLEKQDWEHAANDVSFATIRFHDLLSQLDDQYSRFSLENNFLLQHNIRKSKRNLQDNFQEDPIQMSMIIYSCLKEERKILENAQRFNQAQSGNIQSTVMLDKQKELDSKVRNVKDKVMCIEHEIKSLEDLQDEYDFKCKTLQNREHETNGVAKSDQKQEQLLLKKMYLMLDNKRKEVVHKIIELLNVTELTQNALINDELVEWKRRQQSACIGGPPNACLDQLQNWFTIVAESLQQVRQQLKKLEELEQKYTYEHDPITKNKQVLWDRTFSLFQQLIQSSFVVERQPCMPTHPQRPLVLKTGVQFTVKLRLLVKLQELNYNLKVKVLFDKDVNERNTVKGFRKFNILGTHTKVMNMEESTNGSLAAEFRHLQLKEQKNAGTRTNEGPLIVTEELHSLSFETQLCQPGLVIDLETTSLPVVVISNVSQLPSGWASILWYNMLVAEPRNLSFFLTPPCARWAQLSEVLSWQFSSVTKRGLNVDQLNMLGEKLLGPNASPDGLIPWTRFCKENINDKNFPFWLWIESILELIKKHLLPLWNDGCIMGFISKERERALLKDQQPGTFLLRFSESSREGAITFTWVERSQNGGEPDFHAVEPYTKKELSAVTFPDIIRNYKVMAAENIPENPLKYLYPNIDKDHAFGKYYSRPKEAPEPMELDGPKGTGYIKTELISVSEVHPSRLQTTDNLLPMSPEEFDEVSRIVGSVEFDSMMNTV
Type: functional

For Cc1cccc(NC(=O)[C@H](CC(C)C)NC(=O)[C@H](Cc2ccc(OP(=O)(O)O)cc2)NC(=O)c2ccc(C#N)cc2)c1, the Activity was “inactive”.
For CC(C)C[C@H](NC(=O)[C@H](Cc1ccc(OP(=O)(O)O)cc1)NC(=O)c1ccc(C#N)cc1)C(=O)NCc1cccnc1, the Activity was “inactive”.
With COC(=O)[C@H](CC(C)C)NC(=O)[C@H](Cc1ccc(OP(=O)(O)O)cc1)NC(=O)c1ccc(C#N)cc1 the Activity was “inactive”.

What follows are compounds tested against T2, Signal transducer and activator of transcription 1-alpha/beta (Homo sapiens, UniProt P42224) (assay: as §1).
T2 sequence (P42224 whole entry): T1 sequence (whole entry)
Type: functional

First: CC(C)C[C@H](NC(=O)[C@H](Cc1ccc(OP(=O)(O)O)cc1)NC(=O)c1ccc(C#N)cc1)C(=O)Nc1ccccc1
Second: CC(C)C[C@H](NC(=O)[C@H](Cc1ccc(OP(=O)(O)O)cc1)NC(=O)c1ccc(C#N)cc1)C(=O)NCc1ccccc1
The IC50 of the first is 2-fold lower: 380 µM for the first, 760 µM for the second. The first is the more potent here.

CC(C)CNC(=O)[C@H](CC(C)C)NC(=O)[C@H](Cc1ccc(OP(=O)(O)O)cc1)NC(=O)c1ccc(C#N)cc1 (stereo in doubt; form 2) and CC(C)C[C@H](NC(=O)[C@H](Cc1ccc(OP(=O)(O)O)cc1)NC(=O)c1ccc(C#N)cc1)C(=O)NCCCO are within 1.5-fold of each other in IC50: 250 µM for the first, 210 µM for the second.

First: CC(C)C[C@H](NC(=O)[C@H](Cc1ccc(OP(=O)(O)O)cc1)NC(=O)c1ccc(C#N)cc1)C(=O)NCc1ccncc1
Second: CC(C)CNC(=O)[C@H](CC(C)C)NC(=O)[C@H](Cc1ccc(OP(=O)(O)O)cc1)NC(=O)c1ccc(C#N)cc1 (stereo in doubt; form 1)
The IC50 of the first is 1.9-fold lower: 402 µM for the first, 760 µM for the second. The first is the more potent here.

CC(C)C[C@H](NC(=O)[C@H](Cc1ccc(OP(=O)(O)O)cc1)NC(=O)c1ccc(C#N)cc1)C(=O)NC1CCCCC1 and COc1cccc(NC(=O)[C@H](CC(C)C)NC(=O)[C@H](Cc2ccc(OP(=O)(O)O)cc2)NC(=O)c2ccc(C#N)cc2)c1 are within 1.5-fold of each other in IC50: 605 µM for the first, 560 µM for the second.
